Reference: patent US10357481B2 (MERCK SHARP & DOHME CORP., priority 2015, dated 2019)

These compounds were tested against T1, human PDE2A1 (Homo sapiens, UniProt O00408) (assay: IMAP FP PDE selectivity panel, human PDE2A1). Conditions: Lab B; read-out: Human PDE2 Ki (nM) Lab B.
T1 construct: GST; purchased BPS Bioscience (San Diego, Calif.) 60020; host or cells: insect cells
Format: biochemical
Method in brief: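 Human PDE2A1 tested alongside PDE1–11 by IMAP fluorescence polarization at room temperature. Substrate was 50 nM FAM-cAMP plus 1000 nM cGMP, buffer pH 7.2 with MgCl2 and DTT, enzyme set for 20% conversion. Ten 3-fold compound dilutions; 60 min reaction, then IMAP binding solution, 1 h, parallel/perpendicular fluorescence read.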

T1 sequence (O00408 1-920 isoform O00408-2): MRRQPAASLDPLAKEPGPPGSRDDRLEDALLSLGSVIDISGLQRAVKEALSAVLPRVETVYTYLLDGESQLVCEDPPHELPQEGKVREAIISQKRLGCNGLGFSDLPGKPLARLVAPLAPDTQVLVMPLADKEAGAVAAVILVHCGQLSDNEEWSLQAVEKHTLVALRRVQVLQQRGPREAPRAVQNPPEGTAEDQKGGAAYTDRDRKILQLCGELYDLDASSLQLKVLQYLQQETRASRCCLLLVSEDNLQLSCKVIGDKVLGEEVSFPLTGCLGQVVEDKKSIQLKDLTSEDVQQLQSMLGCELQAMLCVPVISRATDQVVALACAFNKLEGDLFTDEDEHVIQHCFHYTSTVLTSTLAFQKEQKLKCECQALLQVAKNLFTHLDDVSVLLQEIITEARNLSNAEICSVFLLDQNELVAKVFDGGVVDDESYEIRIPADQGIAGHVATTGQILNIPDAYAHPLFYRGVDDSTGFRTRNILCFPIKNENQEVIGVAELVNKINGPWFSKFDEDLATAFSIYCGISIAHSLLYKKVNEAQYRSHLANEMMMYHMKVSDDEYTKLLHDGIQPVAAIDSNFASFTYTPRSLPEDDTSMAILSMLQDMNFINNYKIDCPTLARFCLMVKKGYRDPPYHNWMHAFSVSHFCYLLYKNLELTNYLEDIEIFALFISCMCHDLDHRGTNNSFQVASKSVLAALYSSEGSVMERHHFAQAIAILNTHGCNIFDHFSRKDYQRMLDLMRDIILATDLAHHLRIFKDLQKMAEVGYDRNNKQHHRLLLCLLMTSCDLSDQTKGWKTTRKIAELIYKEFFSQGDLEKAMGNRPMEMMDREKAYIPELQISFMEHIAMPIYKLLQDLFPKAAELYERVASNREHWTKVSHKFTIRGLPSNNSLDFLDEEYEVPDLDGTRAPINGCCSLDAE

Ki [nM] | SMILES
17 | CCCc1nc2nc(C)cc(N[C@@H](c3ccc(C(F)(F)F)c(F)c3)C(C)(C)C)n2n1 [Example 204, (R)-N-(1-(3-Fluoro-4-(trifluoromethyl)phenyl)-2,2-dimethylpropyl)-5-methyl-2-propyl-[1,2,4]triazolo [1,5-a]pyrimidin-7-amine]
555 | Cc1cc(N[C@H](c2ccc(C(F)(F)F)c(F)c2)C(C)(C)O)n2ncnc2n1 [Example 99, (1R)-1-[3-Fluoro-4-(trifluoromethyl)phenyl]-2-methyl-1-[(5-methyl [1,2,4]triazolo[1,5-a]pyrimidin-7-yl)amino]propan-2-ol]
> 2960 | CN(C)c1cc(N[C@H](c2ccc(C(F)(F)F)c(F)c2)C(C)(C)O)n2ncnc2n1 (single isomer, unassigned) [Example 243]
34 | Cc1cc(N[C@H](c2ccc(OC(F)(F)F)c(Cl)c2)C(C)(C)O)n2ncnc2n1 [Example 103, (1R)-1-[3-Chloro-4-(trifluoromethoxy)phenyl]-2-methyl-1-[(5-methyl[1,2,4]triazolo[1,5-a]pyrimidin-7-yl)amino]propan-2-ol]
210 | COc1cc(N[C@H](c2ccc(C(F)(F)F)c(F)c2)C(C)(C)O)n2ncnc2n1 (single isomer, unassigned) [Example 236]
> 2960 | CC(C)(C)c1cc(NC(c2ccc(OC(F)(F)F)c(F)c2)C(C)(C)O)n2ncnc2n1 (single isomer, unassigned) [Example 147, (1R or S)-1-[(5-tert-Butyl[1,2,4]triazolo[1,5-a]pyrimidin-7-yl)amino]-1-[3-fluoro-4-(trifluoro-methoxy)phenyl]-2-methylpropan-2-ol]
~1180 | COCc1cc(N[C@H](C)c2ccc(C(F)(F)F)c(F)c2)n2ncnc2n1 [Example 77, N-{(1R)-1-[3-Fluoro-4-(trifluoromethyl)phenyl]ethyl}-5-(methoxymethyl)[1,2,4]triazolo [1,5-a]pyrimidin-7-amine]
24 | Cc1cc(N(C)C(c2ccc(OC(F)(F)F)c(F)c2)C(C)(C)O)n2ncnc2n1 (single isomer, unassigned) [Example 247, (R)- or (S)-1-(3-Fluoro-4-(trifluoromethoxy)phenyl)-2-methyl-1-(methyl(5-methyl-[1,2,4]triazolo [1,5-a]pyrimidine-7-yl)amino)propan-2-ol]
93 | Cc1cc(NC(c2ccc3c(c2)OC(F)(F)O3)C(C)(C)O)n2ncnc2n1 (single isomer, unassigned) [Example 113, (1R or S)-1-(2,2-Difluoro-1,3-benzodioxol-5-yl)-2-methyl-1-[(5-methyl[1,2,4]triazolo[1,5-a]pyrimidin-7-yl)amino]propan-2-ol]
57 | Cc1cc(N[C@@H](c2ccc(C(F)(F)F)c(F)c2)C(C)(C)C)n2nc(CCO)nc2n1 [Example 250, (R)-2-(7-(1-(3-Fluoro-4-(trifluoromethyl)phenyl)-2,2-dimethylpropylamino)-5-methyl-[1.2.4]triazolo[1,5-a]pyrimidin-2-yl)ethanol]
40 | Cc1cc(N[C@@H](c2ccc(C(F)(F)F)c(F)c2)C(C)(C)C)n2nc(CCCO)nc2n1 [Example 249, (R)-3-(7-(1-(3-Fluoro-4-(trifluoromethyl)phenyl)-2,2-dimethylpropylamino)-5-methyl-[1,2,4]triazolo[1,5-a]pyrimidin-2-yl)propan-1-ol]
12 | CC1(c2ccc(C(Nc3cc(C(F)(F)F)nc4ncnn34)C(C)(C)O)cc2)CC1 (single isomer, unassigned) [Example 180, (1R or S)-2-Methyl-1-[4-(1-methylcyclopropyl)phenyl]-1-{[5-(trifluoromethyl) [1,2,4]triazolo [1,5-a]pyrimidin-7-yl]amino} propan-2-ol]
616 | CN(C)c1cc(N[C@@H](c2ccc(C(F)(F)F)c(F)c2)C(C)(C)C)n2ncnc2n1 [Example 242, (R)-N^7-(1-(3-Fluoro-4-(trifluoromethyl)phenyl)-2,2-dimethylpropy1)-N^5,N^5-dimethyl-[1,2,4]triazolo [1,5-a]pyrimidine-5,7-diamine]
134 | CCC(O)(CC)C(Nc1cc(C)nc2ncnn12)c1ccc(C(F)(F)F)c(F)c1 (single isomer, unassigned) [Example 216, (S)- or (R)-3-((3-Fluoro-4-(trifluoromethyl)phenyl)(5-methyl-[1,2,4]triazolo [1,5-a]pyrimidin-7-ylamino)methyl) pentan-3-ol]
83 | CC(C)(N)C(Nc1cc(C(F)(F)F)nc2ncnn12)c1ccc(C(F)(F)F)c(F)c1 (single isomer, unassigned) [Example 253, (R)- or (S)-1-(3-Fluoro-4-(trifluoromethyl)phenyl)-2-methyl-N^1-(5-(trifluoromethyl)-[1,2,4]triazolo [1,5-a]pyrimidin-7-yl) propane-1,2-diamine]

Further lines, the compound ahead of its results:

SMILES | Ki [nM]
CN(C)c1cc(NC2(c3ccc(C(F)(F)F)c(F)c3)CC2)n2ncnc2n1 [Example 239, N^7-(1-(3-Fluoro-4-(trifluoromethyl)phenyl)cyclopropyl)-N,N-dimethyl-[1,2,4]triazolo[1,5-a]pyrimidine-5,7-diamine] | 13
CC(C)(O)C(Nc1cc(C(F)F)nc2ncnn12)c1ccc(OC(F)(F)F)cc1F (single isomer, unassigned) [Example 185, (1S or R)-{[5-(Difluoromethyl) [1,2,4]triazolo [1,5-a]pyrimidin-7-yl]amino}-1-[2-fluoro-4-(trifluoromethoxy)phenyl]-2-methylpropan-2-ol] | 10
CC(C)(O)C(Nc1cc(C(F)(F)F)nc2ncnn12)c1ccc(C(F)(F)F)cc1Cl (single isomer, unassigned) [Example 159, (1S or R)-1-[2-Chloro-4-(trifluoromethyl)phenyl]-2-methyl-1-{[5-(trifluoromethyl)[1,2,4]triazolo[1,5-a]pyrimidin-7-yl]amino}propan-2-ol] | > 2960
Cc1cc(NC(c2ccc(OC(F)(F)F)cc2F)C(C)(C)O)n2nc(N)nc2n1 (stereo in doubt) [Example 258, (1S)-1-[(2-Amino-5-methyl[1,2,4]triazolo[1,5-a]pyrimidin-7-yl)amino]-1-[2-fluoro-4-(trifluoromethoxy)phenyl]-2-methylpropan-2-ol] | 6
CC(C)(O)C(Nc1cc(C(F)F)nc2ncnn12)c1ccc(OC(F)F)cc1F (single isomer, unassigned) [Example 181] | 32
CNc1nc2nc(C)cc(NC3(c4ccc(C(F)(F)F)c(F)c4)CC3)n2n1 [Example 257, N^7-{1-[3-Fluoro-4-(trifluoromethyl)phenyl]cyclopropyl}-N^2,5-dimethyl[1,2,4]triazolo[1,5-a]pyrimidine-2,7-diamine] | 10
C[C@@H](Nc1cnnc2ncnn12)c1ccc(S(F)(F)(F)(F)F)cc1 [Example 259, (R)—N-{1-[4-(Pentafluoro-λ^6-sulfanyl)phenyl]ethyl}-[1,2,4]triazolo[5,1-a][1,2,4]trizain-4-amine] | 1430
CC(C)(O)[C@@H](Nc1cc(C(F)(F)F)cc2nc(N)nn12)c1ccc(C(F)(F)F)cc1 [Example 294, (S)-1-((2-Amino-7-(trifluoromethyl)-[1,2,4]triazolo[1,5-a]pyridin-5-yl)amino)-2-methyl-1-(4-(trifluoromethyl)phenyl)propan-2-ol] | 678
CC(C)(O)C(Nc1cc(C(F)(F)F)nc2ncnn12)c1ccc(SC(F)(F)F)cc1 (single isomer, unassigned) [Example 221, (R)- or (S)-2-Methyl-1-(5-(trifluoromethyl)-[1,2,4]triazolo [1,5-a]pyrimidin-7-ylamino)-1-(4-(trifluoromethylthio)phenyl)propan-2-ol] | > 2960
CC(C)(C)c1cc(NC(c2ccc(S(F)(F)(F)(F)F)cc2)C(C)(C)O)n2ncnc2n1 (single isomer, unassigned) [Example 151, (1R or S)-1-[(5-tert-Butyl[1,2,4]triazolol[1,5-a]pyrimidin-7-yl)amino]-2-methyl-1-[4-(pentafluoro-λ^6-sulfanyl)phenyl] propan-2-ol] | > 2960
Cc1cc(N[C@@H](c2ccc(SC(F)(F)F)cc2)C2CC2)n2ncnc2n1 [Example 40, N-[(R)-Cyclopropyl{4-[(trifluoromethyl)sulfanyl]phenyl}methyl]-5-methyl[1,2,4]triazolo[1,5-a] pyrimidin-7-amine] | 14
Cc1cc(NC(C)(C)c2ccc(SC(F)(F)F)cc2)n2ncnc2n1 [Example 55, 5-Methyl-N-(1-methyl-1-{4-[(trifluoromethyl)sulfanyl]phenyl}ethyl)[1,2,4]triazolo[1,5-a] pyrimidin-7-amine] | 211
Cc1cc(N[C@@H](c2ccc(C3CC3)cc2)C2CC2)n2ncnc2n1 [Example 42, N-[(R)-Cyclopropyl(4-cyclopropylphenyl)methyl]-5-methyl[1,2,4]triazolo[1,5-a] pyrimidin-7-amine] | 20
Fc1cc(C2(Nc3cc(C(F)F)cc4ncnn34)CC2)ccc1C(F)(F)F [Example 274, 7-(Difluoromethyl)-N-(1-(3-fluoro-4-(trifluoromethy)phenyl)cyclopropyl)-[1,2,4]triazol-[1,5-a]pyridin-5-amine] | 11
C[C@@H](Nc1cc(CO)cc2ncnn12)c1ccc(C(F)(F)F)c(F)c1 [Example 272, [5-({(1R)-1-[3-Fluoro4-(trifluoromethyl)phenyl]ethyl}amino)[1,2,4]triazolo[1,5-a]pyridin-7-yl]methanol] | 121
Cc1cc(N[C@@H](c2ccc(C(F)(F)F)cc2)[C@H](C)O)n2ncnc2n1 [Example 90, (1S,2S)-1-[(5-Methyl[1,2,4]triazolo[1,5-a]pyrimidin-7-yl)amino]-1-[4-(trifluoromethyl)phenyl]propan-2-ol] | ~1790
Cc1cc(N[C@@H](c2ccc(C(F)(F)F)cc2)C(C)C)n2ncnc2n1 [Example 19, 5-Methyl-N-{(1R)-2-methyl-1-[4-(trifluoromethyl)phenyl]propyl} [1,2,4]triazolo[1,5-a]pyrimidin-7-amine] | 36
